Test results reported in patent US20240108753A1, “NUCLEIC ACID DELIVERY” (NUNTIUS THERAPEUTICS LIMITED, priority 2021, published 2024).

Assay: Hydrodynamic size, polydispersity index and zeta potential of dendrimer, lipid and mRNA complexes
Type: physicochemical
Conditions: DOTMA/DOPE w/w 10:1 to mRNA; for Hydrodynamic size: dendrimer, lipid and mRNA complexes
Procedure: The hydrodynamic size, polydispersity index and Zeta potential was determined for a set of the dendrimers disclosed in Tables 1 and 2.

| Substance | Polydispersity Index (PDI) (N:P 0.16:1) | Zeta Potential (N:P 0.16:1) [mV] | Polydispersity Index (PDI) (N:P 8:1) | Zeta Potential (N:P 8:1) [mV] | Hydrodynamic size (N:P 0.16:1) [nm] | Hydrodynamic size (N:P 8:1) [nm] |
| --- | --- | --- | --- | --- | --- | --- |
| (FR)8(KRQ)4(KRW)2KGSC-NH2 [G1-RW, 2-RQ, 3-FR] | 0.146 | 37 | 0.452 | 51 | 133 | 105 |
| (LR)8(KRL)4(KRL)2KRYM-NH2 [RYMG1,2-RL, 3-LR] | 0.137 | 43 | 0.257 | 56 | 133 | 68 |
| (lR)8(KrL)4(kRl)2KGSC-NH2 [G1-Rl, 2-rL, 3-lR] | 0.22 | 42 | 0.241 | 56 | 135 | 74 |
| (LR)8(KR)4(KRLRL)2KRHC-NH2 [RHCG1-RLRL, 2-R, 3-LR] | 0.131 | 43 | 0.37 | 56 | 135 | 78 |
| (RL)8(KRL)4(KLR)2KGSC-NH2 [G1-LR,2,3-RL] | 0.136 | 41 | 0.417 | 53 | 132 | 80 |
| (LR)8(KRL)4(KRL)2KRFW-NH2 [RFWG1,2-RL, 3-LR] | 0.152 | 39 | 0.401 | 55 | 120 | 91 |
| (LR)8(KRL)4(KRE)2KGSC-NH2 [G1-RE, 2-RL, 3-LR] | 0.096 | 45 | 0.158 | 53 | 134 | 96 |
| (lr)8(Krl)4(Krl)2Kgsc-NH2 [LK-G1,2-rl, 3-lr] | 0.16 | 45 | 0.251 | 53 | 132 | 74 |
| (LR)8(DabRL)4(DabRL)2DabGSC-NH2 [DabG1,2-RL, 3-LR] | 0.117 | 34 | 0.286 | 57 | 124 | 78 |
| (WR)8(KRM)4(KRF)2KGSC-NH2 [G1-RF, 2-RM, 3-WR] | 0.125 | 41 | 0.277 | 51 | 142 | 80 |
| (LR)8(KRL)4(KRL)2KRHC-NH2 [RHCG1,2-RL,3-LR] | 0.11 | 44 | 0.363 | 50 | 134 | 58 |
| (LR)8(KRL)4(KRL)2KA-NH2 [KAG1,2-RL, 3-LR] | 0.136 | 47 | 0.184 | 51 | 125 | 76 |
| (R)8(KR)4(KR)2KRHC-NH2 [RHCG1,2,3-R] | 0.173 | 43 | 0.396 | 62 | 125 | 70 |
| (RL)8(KLR)4(KLR)2KGSC-NH2 [G1,2-LR,3-RL] | 0.144 | 32 | 0.242 | 54 | 137 | 89 |
